Data as given in patent US20110171192A1, “SUBSTITUTED AMINE DERIVATIVE AND MEDICINAL COMPOSITION COMPRISING SAME AS THE ACTIVE INGREDIENT” (priority 2008, published 2011).

Tests used:
human CNT2 = molecular target: T1, human CNT2 (Homo sapiens, UniProt O43868); experiment: Inhibitory activity against uptake of adenosine through human CNT2; type: cell-based; conditions: human CNT2 transiently expressing cells, 14C-adenosine 10 μM, 30 minutes at 37° C., NBMPR 10 μM
T1 construct: expressed in transfected cells
T1 sequence (O43868 1-658): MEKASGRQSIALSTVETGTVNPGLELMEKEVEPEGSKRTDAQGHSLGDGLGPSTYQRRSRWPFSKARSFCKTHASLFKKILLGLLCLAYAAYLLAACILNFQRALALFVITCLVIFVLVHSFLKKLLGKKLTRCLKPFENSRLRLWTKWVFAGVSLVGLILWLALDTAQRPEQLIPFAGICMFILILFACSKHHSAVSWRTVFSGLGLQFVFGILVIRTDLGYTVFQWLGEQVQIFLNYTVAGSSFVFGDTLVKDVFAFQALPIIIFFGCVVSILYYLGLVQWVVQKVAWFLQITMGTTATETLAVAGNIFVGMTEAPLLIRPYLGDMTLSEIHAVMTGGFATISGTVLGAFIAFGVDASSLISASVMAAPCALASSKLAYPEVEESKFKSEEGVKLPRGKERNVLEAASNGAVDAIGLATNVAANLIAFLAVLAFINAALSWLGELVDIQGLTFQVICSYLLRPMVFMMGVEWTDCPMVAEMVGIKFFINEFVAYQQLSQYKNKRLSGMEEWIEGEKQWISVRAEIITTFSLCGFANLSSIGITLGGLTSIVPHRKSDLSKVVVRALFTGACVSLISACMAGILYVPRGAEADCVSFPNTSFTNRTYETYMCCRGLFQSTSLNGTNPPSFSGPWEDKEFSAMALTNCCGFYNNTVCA
Method: Measurement of Inhibitory Activity Against Uptake of Adenosine Through Human CNT2
An Uptake buffer was prepared by addition of a mixture of non-radioisotope labeled (Sigma) and ^14C-labeled (GE Healthcare) adenosine at the final concentration of 10 μM into a buffer, pH 7.4, containing 140 mM sodium chloride, 2 mM potassium chloride, 1 mM calcium chloride, 1 mM magnesium chloride, 10 mM HEPES
2-[4-(2-hydroxyethyl)-1-piperazinyl]thane sulfonic acid, 5 mM tris(hydroxymethyl)aminomethane and 5 mM glucose. For measurement of basal uptake, Basal uptake measurement buffer, which contained 140 mM choline chloride instead of sodium chloride was prepared. In uptake assays, NBMPR was added to Uptake buffer and Basal uptake measurement buffer at the final concentration of 10 μM. In the case of measurement of inhibitory activity of test compounds, test compounds were dissolved in dimethyl sulfoxide, and then appropriately diluted with Uptake buffer as to Measurement buffers. After removing culture medium of human CNT2 transiently expressing cells, Pretreatment buffer (Basal uptake measurement buffer without adenosine and glucose) was added to wells at 500 μL/well and incubated at 37° C. for 10 minutes. After repeating the same step again, Pretreatment buffer was removed and Measurement buffers and Basal uptake measurement buffer were added at 300 μL/well and incubated at 37° C. After incubation for 30 minutes, Measurement buffers and Basal uptake measurement buffer were removed, and the cells were washed with Washing buffer (Basal uptake measurement buffer with non-radioisotope labeled adenosine at 10 μM) at 500 μL/well twice. The cells were solubilized with 0.5 mol/L sodium hydroxide at 200 μL/well, and the cell lysates were transferred into glass vials at 100 μL. After mixing with 5 mL of ACS-II (GE Healthcare Bioscience), radioactivity was measured by means of scintillation counter (Aloka). One hundred % was set to the difference between the uptake in the control group and the basal uptake, and the uptake of adenosine at each test compound concentration was calculated. The test compound concentration inhibiting 50% uptake of adenosine (IC50 value) was calculated using regression line. […] The IC50 value was expressed as A; 1˜10 nM, B; 10˜100 nM or not less than 100 nM;

absorption of adenosine = experiment: Inhibition of absorption of orally given [3H]-adenosine in rats (serum radioactivity); type: in vivo; conditions: male SD rats, oral; for ED50: Rattus norvegicus, 50% inhibitory dose on absorption of adenosine, from regression line; for ED50 value (in words): inhibition on absorption of adenosine
Method: Four weeks old male SD rats (Charles river japan corporation) were purchased and the animals over 1 weeks quarantine were used. Body weight of the rats fasted 24 hours from last day were measured and grouped used grouping soft (Stat light #11, Yukums corporation). Test compound and [^3H]-adenosine solution (4 μCi/mL) were given orally at the volume of 2 mL/kg, and about 500 μL of blood were obtained from retro orbital vein. The blood was centrifuged at 3000 rpm for 10 min, and 13 μL of H2O2 solution were added to the 100 μL of resulted serum and placed for 10 min. And 5 mL of liquid scintilation cocktail added and mixed enough, and radio activity was measured using liquid scintillation counter. Inhibitory rate was calculated according to the formula described as follow, and the regression line was obtained from inhibitory rate and its log dose. The 50% inhibitory dose of the compound (ED50) at the inhibition on absorption of adenosine was calculated used regression line formula The results were shown in Table 2.
Inhibitory ratio={1−radio activity of the serum obtained from rats treated with test compound (dpm)/radio activity of the serum obtained from rats treated with vehicle (dpm)}×100

[1] = Stability of nucleic acid transporter inhibitor in solution (acetate buffer pH 3, HPLC); type: physicochemical; conditions: for residual ratio of the compound (%): acetate buffer pH 3, 10^−5 M, 25 °C, 20 hours after
Method: Stability of Nucleic Acid Transporter Inhibitor in Solution
0.02 mL of comparative compound or compound (1) methanol solution at the concentration of 10^−3 M was added to the 1.98 mL of acetate buffer, pH 3 (final concentration of 10^−5 M). The solutions were incubated at 25 °C, and the reaction solutions were collected at 2, 4 and 20 hours later. Each obtained 0.5 mL of reaction solutions were neutralized and adjusted to 1 mL, and 0.01 mL of 10^−3 M methanol solutions of 4-hydroxy were spiked as internal standard substrate. The solutions were measured by HPLC according to the measurement condition shown as follows, and the ratio (IS ratio) compared the amount of internal standard substrate with the amount of compounds was calculated. The remaining rate of test compounds were obtained to compare the IS ratio with IS ratio of pre-incubation according to the method described above.
HPLC Analytical Condition • column: Inertsil ODS-2 (φ4.6×150 mm) • Mobile phase: 20 mM phosphate buffer (pH 6)/CH3CN=7/3 (w/w) • Detection absorbance: 250 nm • Flow rate: 1 mL/min • Injection volume: 0.02 mL • Time span of measurement: 20 min

SMILES | residual ratio of the compound (%) [1] [%] | Stability in pH3 solution (in words) ([1]; pH3 solution, versus comparative compound) | IC50 (human CNT2) [nM] | ED50 (absorption of adenosine) [mg/kg] | ED50 value (in words) (absorption of adenosine)
CC(C)(C)[Si](C)(C)OCCCCOc1cc(CNc2c(C#N)c3c(N)ncnc3n2C2O[C@H](CO)[C@@H](O)[C@@]2(C)O)ccc1-c1ccccc1 (stereo partly drawn) [Compound (5), 4-Amino-6-({2-[4-(tert-butyl-dimethyl-silanyloxy)-butoxy]-biphenyl-4-ylmeth-yl}-amino)-7-(3,4-dihydroxy-5-hydroxymethyl-3-methyl-tetrahydro-furan-2-yl)-7H-pyrrolo[2,3-d]pyrimidine-5-carbonitrile] |  |  | ≥ 100 |  | 
C[C@]1(O)C(n2c(NCc3ccc(-c4ccccc4)c(OCCCCO)c3)c(C#N)c3c(N)ncnc32)O[C@H](CO)[C@H]1O (stereo partly drawn) [Compound (8), 4-Amino-7-(3,4-dihydroxy-5-hydroxymethyl-3-methyl-tetrahydro-furan-2-yl)-6-{[2-(4-hydroxy-butoxy)-biphenyl-4-ylmethyl]-amino}-7H-pyrrolo[2,3-d]pyrimidine-5-carbonitrile] |  |  | 1 to 10 | 0.78 | high ED50 value
CN(C)C(=O)CCCCOc1cc(CNc2c(C#N)c3c(N)ncnc3n2C2O[C@H](CO)[C@@H](O)[C@@]2(C)O)ccc1-c1ccccc1 (stereo partly drawn) [Compound (7), 5-(4-{[4-Amino-5-cyano-7-(3,4-dihydroxy-5-hydroxymethyl-3-methyltetrahydrofuran-2-yl)-7H-pyrrolo[2,3-d]pyrimidin-6-ylamino]-methyl}-biphenyl-2-yloxy)-pentanoic acid dimethylamide] |  |  | 1 to 10 | 3 | high ED50 value
C[C@]1(O)C(n2c(NCc3ccc(-c4ccccc4)c(OCCCCN4CCOCC4)c3)c(C#N)c3c(N)ncnc32)O[C@H](CO)[C@H]1O (stereo partly drawn) [Compound (4), 4-Amino-7-(3,4-dihydroxy-5-hydroxymethyl-3-methyl-tetrahydro-furan-2-yl)-6-{[2-(4-morpholin-4-yl-butoxy)-biphenyl-4-ylmethyl]-amino}-7H-pyrrolo[2,3-d]pyrimidine-5-carbonitrile] |  |  | 10 to 100 | 0.51 | high ED50 value
CCOC(=O)CCCCOc1cc(CNc2c(C#N)c3c(O)ncnc3n2C2O[C@H](CO)[C@@H](O)[C@@]2(C)O)ccc1-c1ccccc1 (stereo partly drawn) [Compound (9), 5-(4-{[5-Cyano-7-(3,4-dihydroxy-5-hydroxymethyl-3-methyltetrahydro-furan-2-yl)-4-hydroxy-7H-pyrrolo[2,3-d]pyrimidin-6-ylamino]methyl}-biphenyl-2-yloxy)-pentanoic acid ethyl ester] |  |  | ≥ 100 |  | 
C[C@]1(O)C(n2c(NCc3ccc(-c4ccccc4)c(OCCCCCl)c3)c(C#N)c3c(N)ncnc32)O[C@H](CO)[C@H]1O (stereo partly drawn) [Compound (3), 4-Amino-6-{[2-(4-chloro-butoxy)-biphenyl-4-ylmethyl]-amino}-7-(3,4-dihydroxy-5-hydroxymethyl-3-methyl-tetrahydro-furan-2-yl)-7H-pyrrolo[2,3-d]pyrimidine-5-carbonitrile] |  |  | 10 to 100 | 1.1 | high ED50 value
CCOC(=O)CCCCOc1cc(CNc2c(C#N)c3c(N)ncnc3n2C2O[C@H](CO)[C@@H](O)[C@@]2(C)O)ccc1-c1ccccc1 (stereo partly drawn) [Compound (2), 5-(4-{[4-Amino-5-cyano-7-(3,4-dihydroxy-5-hydroxymethyl-3-methyl-tetrahydrofuran-2-yl)-7H-pyrrolo[2,3-d]pyrimidin-6-ylamino]-methyl}-biphenyl-2-yloxy)-pentanoic acid ethyl ester] |  |  | 10 to 100 | 1.4 | high ED50 value
C[C@]1(O)C(n2c(NCc3ccc(-c4ccccc4)c(OCCCCN4CCCCC4)c3)c(C#N)c3c(N)ncnc32)O[C@H](CO)[C@H]1O (stereo partly drawn) [Compound (6), 4-Amino-7-(3,4-dihydroxy-5-hydroxymethyl-3-methyl-tetrahydro-furan-2-yl)-6-{[2-(4-piperidin-1-yl-butoxy)-biphenyl-4-ylmethyl]-amino}-7H-pyrrolo[2,3-d]pyrimidine-5-carbonitrile] |  |  | 10 to 100 |  | 

Further lines, with some results ahead:

residual ratio of the compound (%) [1] [%] | Stability in pH3 solution (in words) ([1]; pH3 solution, versus comparative compound) | SMILES | IC50 (human CNT2) [nM] | ED50 (absorption of adenosine) [mg/kg] | ED50 value (in words) (absorption of adenosine)
45.0 |  | N#Cc1c(NCc2ccc(-c3ccccc3)cc2)n(C2O[C@H](CO)[C@@H](O)[C@H]2O)c2ncnc(N)c12 (stereo partly drawn) [Comparative compound, reference compound] |  |  | 
85.0 | better than that of comparative compound | C[C@@]1(O)[C@H](O)[C@@H](CO)O[C@H]1n1c(NCc2ccc(-c3ccccc3)cc2)c(C#N)c2c(N)ncnc21 [Compound (1), 4-Amino-6-[(biphenyl-4-ylmethyl)-amino]-7-(3,4-dihydroxy-5-hydroxymethyl-3-methyl-tetrahydro-furan-2-yl)-7H-pyrrolo[2,3-d]pyrimidine-5-carbonitrile] | ≥ 100 | 1.3 | high ED50 value
